For data set [1], the system named is Rattus norvegicus. The data set can be described thus: Gastrointestinal toxicity in Rattus norvegicus albino (rat) assessed as ulcer index at 25 mg/kg, po for 3 days measured 2 hr after last dose. The format is organism-based. The arrangement: dose 25 mg/kg, route oral. Particulars: in vivo.
For data set [2], the system named is Mus musculus. The data set can be described thus: Analgesic activity in Mus musculus (mouse) assessed as inhibition of p-benzoquinone-induced writhing at 25 mg/kg, ip pretreated 30 min prior to carrageenan administration measured 3 hr after carrageenan challenge (reference value: 0%). Format: functional. Particulars: route intraperitoneal. In general terms: Writhing tests count abdominal constrictions after an irritant is injected.

For data set [3], the system named is Mus musculus. The experiment in a line: Analgesic activity in Mus musculus (mouse) assessed as inhibition of p-benzoquinone-induced writhing at 25 mg/kg, ip pretreated 30 min prior to carrageenan administration measured 2 hr after carrageenan challenge (reference value: 0%). Format: functional. Particulars: route intraperitoneal.
For data set [4], the system named is Mus musculus. The data set can be described thus: Analgesic activity in Mus musculus (mouse) assessed as inhibition of p-benzoquinone-induced writhing at 25 mg/kg, ip pretreated 30 min prior to carrageenan administration measured 4 hr after carrageenan challenge (reference value: 0%). The format is functional. Particulars: route intraperitoneal.
Data set [5] has as its system Rattus norvegicus. The experiment in a line: Anti-inflammatory activity in Rattus norvegicus albino (rat) assessed as inhibition of carrageenan-induced paw edema at 25 mg/kg, ip pretreated 30 min prior to carrageenan administration measured 4 hr after carrageenan challenge (reference value: 0%). Format: functional. The following applies: route intraperitoneal. In general terms: In the carrageenan paw model, swelling and tenderness develop within hours.

A short description of data set [6]: Toxicity in ip dosed Mus musculus (mouse) after 24 hr. Format: organism-based. The following applies: in vivo.
Data set [7] has as its system Rattus norvegicus. The data set can be described thus: Anti-inflammatory activity in Rattus norvegicus albino (rat) assessed as inhibition of carrageenan-induced paw edema at 25 mg/kg, ip pretreated 30 min prior to carrageenan administration measured 2 hr after carrageenan challenge (reference value: 0%). The following applies: route intraperitoneal. The format is functional.

In data set [8] the test system is Mus musculus. The experiment in a line: Analgesic activity in Mus musculus (mouse) assessed as inhibition of p-benzoquinone-induced writhing at 25 mg/kg, ip pretreated 30 min prior to carrageenan administration measured 1 hr after carrageenan challenge (reference value: 0%). The following applies: route intraperitoneal. The format is functional.
The subject of data set [9] is Rattus norvegicus. The experiment in a line: Anti-inflammatory activity in Rattus norvegicus albino (rat) assessed as inhibition of carrageenan-induced paw edema at 25 mg/kg, ip pretreated 30 min prior to carrageenan administration measured 3 hr after carrageenan challenge (reference value: 0%). The format is functional. Particulars: route intraperitoneal.
The subject of data set [10] is Rattus norvegicus. The data set can be described thus: Anti-inflammatory activity in Rattus norvegicus albino (rat) assessed as inhibition of carrageenan-induced paw edema at 25 mg/kg, ip pretreated 30 min prior to carrageenan administration measured 1 hr after carrageenan challenge (reference value: 0%). Format: functional. The following applies: route intraperitoneal.

For 21 compounds, UI, inhibition in vivo and LD50 results are on record in ChEMBL document CHEMBL3045171, “Design and synthesis of some pyrazole derivatives of expected anti-inflammatory and analgesic activities” (Med Chem Res, 2012).

As a reminder, the inhibition in vivo is the percentage by which the read-out fell short of the control. As usually defined, the LD50 is the dose at which mortality reaches 50%. High values mean lower toxicity, low ones greater toxicity.

For `C=C(C)C(=O)c1ccc(OC)cc1OC`, in the data set on Rattus norvegicus [1], the UI was found to be 15.24. Besides, the inhibition in vivo at 25 mg/kg in the data set on Mus musculus [2] turned out to be 0%; with Mus musculus [3], 20%; in the data set on Mus musculus [4] it was 0%; in the data set on Rattus norvegicus [5], 32.3%; in the data set with Rattus norvegicus [7], 29.8%; with Mus musculus [8] it was 20%. Moreover, the inhibition in vivo at 25 mg/kg with Rattus norvegicus [9] was 31.5%; in the data set with Rattus norvegicus [10], 23.7%. In [6], this compound yielded an LD50 at 24 h of 278 mg/kg.

Consider `C=C(C(=O)c1ccc(OC)cc1OC)c1ccccc1`, for which the inhibition in vivo at 25 mg/kg with Rattus norvegicus [5] is 2.9%; in the data set on Rattus norvegicus [7], 1.43%; in the data set on Rattus norvegicus [9], 1.92%; in the data set with Rattus norvegicus [10], 0%. In addition, in data set [6], the LD50 at 24 h amounted to 232 mg/kg.

Turning to `COc1ccc(C2=NNCC2C)c(OC)c1` (stereo unspecified), the UI in the data set with Rattus norvegicus [1] amounted to 11.67. The inhibition in vivo at 25 mg/kg is 40% with Mus musculus [2]; 60% in the data set with Mus musculus [3]; 20% with Mus musculus [4]; 44.4% with Rattus norvegicus [5]; 44.5% with Rattus norvegicus [7]; 80% in the data set on Mus musculus [8]. The inhibition in vivo at 25 mg/kg with Rattus norvegicus [9] is 45.1%; with Rattus norvegicus [10], 40.4%. The compound further yielded an LD50 at 24 h in data set [6] of 292 mg/kg.

As for `COc1ccc(C2=NNCC2c2ccccc2)c(OC)c1` (stereo unspecified), the inhibition in vivo at 25 mg/kg is 1.92% in the data set on Rattus norvegicus [5], 0% in the data set on Rattus norvegicus [7], 1.8% in the data set with Rattus norvegicus [9] and 0% in the data set with Rattus norvegicus [10]. In data set [6], this compound registered an LD50 at 24 h of 278 mg/kg.

With `COc1ccc(C2=NN(C(=O)NS(=O)(=O)c3ccc(C)cc3)CC2C)c(OC)c1` (stereo unspecified), the inhibition in vivo at 25 mg/kg amounted to 0% in the data set with Mus musculus [2]; 20% in the data set on Mus musculus [3]; 0% with Mus musculus [4]; 25.1% with Rattus norvegicus [5]; 27.3% in the data set on Rattus norvegicus [7]; 20% in the data set on Mus musculus [8]. In addition, the inhibition in vivo at 25 mg/kg with Rattus norvegicus [9] worked out at 25.2%; in the data set with Rattus norvegicus [10], 23.7%. The compound also had an LD50 at 24 h in [6] of 232 mg/kg.

On to `COc1ccc(C2=NN(C(=O)NS(=O)(=O)c3ccc(Cl)cc3)CC2C)c(OC)c1` (stereo unspecified), for which the inhibition in vivo at 25 mg/kg was 18.8% with Rattus norvegicus [5], 14.6% with Rattus norvegicus [7], 16.4% in the data set on Rattus norvegicus [9] and 12.2% in the data set on Rattus norvegicus [10]. Further, the LD50 at 24 h in data set [6] was found to be 248 mg/kg.

`COc1ccc(C2=NN(C(=O)NS(=O)(=O)c3ccc(C)cc3)CC2c2ccccc2)c(OC)c1` (stereo unspecified): the inhibition in vivo at 25 mg/kg in the data set on Rattus norvegicus [5] was determined as 7.21%; with Rattus norvegicus [7], 6.33%; in the data set on Rattus norvegicus [9], 4.83%; in the data set on Rattus norvegicus [10] it was 4.9%. This compound also returned an LD50 at 24 h in [6] of 292 mg/kg.

Take `COc1ccc(C2=NN(C(=O)NS(=O)(=O)c3ccc(Cl)cc3)CC2c2ccccc2)c(OC)c1` (stereo unspecified): the inhibition in vivo at 25 mg/kg with Mus musculus [2] was determined as 20%; in the data set with Mus musculus [3] it was 40%; in the data set with Mus musculus [4], 0%; in the data set on Rattus norvegicus [5], 23.6%; in the data set on Rattus norvegicus [7], 27.3%; with Mus musculus [8], 40%. For the same compound, the inhibition in vivo at 25 mg/kg in the data set on Rattus norvegicus [9] was determined as 25.7%; in the data set with Rattus norvegicus [10] it was 24.1%. The compound also returned an LD50 at 24 h in [6] of 248 mg/kg.

In the case of `COc1ccc(C2=NN(C(=S)NC(=O)c3ccc(Cl)cc3)CC2C)c(OC)c1` (stereo unspecified), the inhibition in vivo at 25 mg/kg in the data set with Rattus norvegicus [5] came out at 1.43%; in the data set with Rattus norvegicus [7] it was 0%; with Rattus norvegicus [9], 1.94%; in the data set with Rattus norvegicus [10] it was 0%. The LD50 at 24 h in [6] turned out to be 232 mg/kg.

Take `COc1ccc(C2=NN(C(=S)NC(=O)c3ccc(Cl)cc3)CC2c2ccccc2)c(OC)c1` (stereo unspecified): the inhibition in vivo at 25 mg/kg in the data set with Rattus norvegicus [5] came out at 1.92%; in the data set on Rattus norvegicus [7], 0%; with Rattus norvegicus [9] it was 1.43%; with Rattus norvegicus [10], 0%. In addition, the LD50 at 24 h in data set [6] was 292 mg/kg.

On to `CCOC(=O)C(=O)C(C)C(=O)c1ccc(OC)cc1OC` (stereo unspecified), for which the inhibition in vivo at 25 mg/kg in the data set with Rattus norvegicus [5] worked out at 24.6%; in the data set with Rattus norvegicus [7], 27.2%; in the data set with Rattus norvegicus [9], 26.1%; in the data set on Rattus norvegicus [10], 23.7%. The compound also had an LD50 at 24 h in data set [6] of 278 mg/kg.

Regarding `CCOC(=O)C(=O)C(C(=O)c1ccc(OC)cc1OC)c1ccccc1` (stereo unspecified), the inhibition in vivo at 25 mg/kg with Rattus norvegicus [5] is 21.2%; in the data set on Rattus norvegicus [7] it was 20%; in the data set on Rattus norvegicus [9], 20.8%; in the data set with Rattus norvegicus [10] it was 15.1%. Moreover, the LD50 at 24 h in [6] was determined as 278 mg/kg.

As to `CCOC(=O)c1nn(-c2ccccc2)c(-c2ccc(OC)cc2OC)c1C`, the inhibition in vivo at 25 mg/kg with Rattus norvegicus [5] was 5.77%; with Rattus norvegicus [7], 4.86%; with Rattus norvegicus [9], 5.81%; in the data set on Rattus norvegicus [10], 4.9%. Also, the LD50 at 24 h in data set [6] was 278 mg/kg.

`CCOC(=O)c1nn(-c2ccc(Cl)cc2)c(-c2ccc(OC)cc2OC)c1C`: the inhibition in vivo at 25 mg/kg worked out at 20% in the data set on Mus musculus [2]; 40% in the data set with Mus musculus [3]; 0% in the data set on Mus musculus [4]; 2.38% with Rattus norvegicus [5]; 1.43% in the data set with Rattus norvegicus [7]; 40% in the data set on Mus musculus [8]. The inhibition in vivo at 25 mg/kg was found to be 2.22% in the data set on Rattus norvegicus [9] and 0% with Rattus norvegicus [10]. The same compound gave an LD50 at 24 h in [6] of 248 mg/kg.

On to `CCOC(=O)c1nn(-c2ccccc2)c(-c2ccc(OC)cc2OC)c1-c1ccccc1`, for which the inhibition in vivo at 25 mg/kg in the data set on Rattus norvegicus [5] was 20.2%; in the data set with Rattus norvegicus [7], 20.5%; in the data set with Rattus norvegicus [9], 20.8%; in the data set on Rattus norvegicus [10], 17.7%. Moreover, the LD50 at 24 h in [6] is 292 mg/kg.

`CCOC(=O)c1nn(-c2ccc(Cl)cc2)c(-c2ccc(OC)cc2OC)c1-c1ccccc1`: the inhibition in vivo at 25 mg/kg in the data set with Rattus norvegicus [5] is 15.4%; in the data set on Rattus norvegicus [7], 12.7%; with Rattus norvegicus [9], 15%; with Rattus norvegicus [10] it was 6.89%. In addition, the LD50 at 24 h in [6] amounted to 278 mg/kg.

As to `COc1ccc(-c2c(C)c(C(=O)O)nn2-c2ccc(Cl)cc2)c(OC)c1`, the inhibition in vivo at 25 mg/kg in the data set with Mus musculus [2] came to 20%; in the data set on Mus musculus [3] it was 20%; in the data set on Mus musculus [4], 0%; with Rattus norvegicus [5], 22.7%; in the data set on Rattus norvegicus [7] it was 28.4%; in the data set with Mus musculus [8] it was 40%. For the same compound, the inhibition in vivo at 25 mg/kg was 22.8% with Rattus norvegicus [9] and 24.7% in the data set with Rattus norvegicus [10]. Besides, the LD50 at 24 h in [6] is 232 mg/kg.

Turning to `COc1ccc(-c2c(-c3ccccc3)c(C(=O)O)nn2-c2ccc(Cl)cc2)c(OC)c1`, the UI in the data set with Rattus norvegicus [1] was found to be 11.56. Moreover, the inhibition in vivo at 25 mg/kg was 40% in the data set on Mus musculus [2]; 60% in the data set with Mus musculus [3]; 20% in the data set with Mus musculus [4]; 42.5% in the data set with Rattus norvegicus [5]; 42% in the data set with Rattus norvegicus [7]; 80% in the data set with Mus musculus [8]. Besides, the inhibition in vivo at 25 mg/kg with Rattus norvegicus [9] is 45.5%; in the data set with Rattus norvegicus [10] it was 37%. The LD50 at 24 h in data set [6] is 232 mg/kg.

With `COc1ccc(C(=O)Cc2ccccc2)c(OC)c1`, the inhibition in vivo at 25 mg/kg in the data set with Rattus norvegicus [5] is 15.9%; in the data set with Rattus norvegicus [7] it was 11.2%; with Rattus norvegicus [9], 15%; in the data set with Rattus norvegicus [10], 5.91%. Besides, the LD50 at 24 h in data set [6] was 278 mg/kg.

As for `Cc1ccc(-c2cc(C(F)(F)F)nn2-c2ccc(S(N)(=O)=O)cc2)cc1` [CELECOXIB], the UI with Rattus norvegicus [1] is given as 8.4. Besides, the inhibition in vivo at 25 mg/kg in the data set on Mus musculus [2] came out at 80%; in the data set on Mus musculus [3] it was 100%; in the data set on Mus musculus [4] it was 80%; with Rattus norvegicus [5] it was 62.8%; in the data set with Rattus norvegicus [7], 61.1%; in the data set on Mus musculus [8], 100%. Moreover, the inhibition in vivo at 25 mg/kg in the data set on Rattus norvegicus [9] is 64%; with Rattus norvegicus [10], 54.2%. The compound further registered an LD50 at 24 h in [6] of 250 mg/kg.

For `CC(C)Cc1ccc(C(C)C(=O)O)cc1` (stereo unspecified) [IBUPROFEN], the UI in the data set with Rattus norvegicus [1] is reported as 22.92. Further, the inhibition in vivo at 25 mg/kg stood at 76.1% with Rattus norvegicus [5], 63.5% in the data set on Rattus norvegicus [7], 66.7% with Rattus norvegicus [9] and 55.4% in the data set with Rattus norvegicus [10].
